Data: patent publication US20250223276A1, “Substituted Pyrrolidinyl And Piperidinyl Compounds And Related Methods Of Treatment” (Alkermes, Inc., priority 2022, published 2025)

target: T1, human orexin-2 receptor (OX2R) (Homo sapiens, UniProt O43614); assay: Human OX2R IP1 assay; type: cell-based; settings: T-Rex CHO cells stably overexpressing human OX2R; IP1 (inositol monophosphate) accumulation, HTRF; 1 hr at 37 degrees C
T1 construct: expressed in transfected cells
T1 sequence (O43614 1-444): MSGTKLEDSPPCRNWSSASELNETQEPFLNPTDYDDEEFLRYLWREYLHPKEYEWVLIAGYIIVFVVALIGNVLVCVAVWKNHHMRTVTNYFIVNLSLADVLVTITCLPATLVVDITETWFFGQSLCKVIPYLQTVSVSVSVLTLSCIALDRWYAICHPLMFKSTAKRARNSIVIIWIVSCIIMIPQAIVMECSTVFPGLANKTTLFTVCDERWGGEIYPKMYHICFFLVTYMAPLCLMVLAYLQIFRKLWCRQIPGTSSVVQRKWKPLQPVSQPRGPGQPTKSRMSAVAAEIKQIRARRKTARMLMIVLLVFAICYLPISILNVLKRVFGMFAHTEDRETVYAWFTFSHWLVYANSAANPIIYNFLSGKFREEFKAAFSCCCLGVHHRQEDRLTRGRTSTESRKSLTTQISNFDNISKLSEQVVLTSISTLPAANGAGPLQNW
Protocol: T-Rex CHO cells stably overexpressing the human orexin-2 receptor (OX2R) are induced overnight with 1 μg/mL of doxycycline in a T225 flask. 24 hours post induction, cells are lifted with accutase and plated into a 384-well proxy plate at 30,000 cells/well. Cells are then treated with different test compounds in 1× stimulation buffer containing 10 mM Hepes, 1 mM CaCl2), 0.5 mM MgCl2, 4.2 mM KCl, 146 mM NaCl, 5.5 mM glucose, and 50 mM LiCl, pH 7.4, for 1 hr at 37 degrees C. Following incubation, the reaction is terminated by the addition of detection mix, which is composed of IP1-d2 and anti-IP1-cryptate diluted in lysis buffer as well as 1× stimulation buffer. The plates are allowed to incubate for 1 hour at room temperature and are then read in the En Vision® multimode plate reader, measuring inositol phosphate levels.
Cisbio IP1 is a cell-based functional assay quantifying the accumulation of inositol monophosphate (IP), a metabolite released as a result of orexin 2 receptor activation through the phospholipase C-Gq signaling pathway. This is a competitive immunoassay in which the IP1 produced by the cells upon receptor activation competes with the IP1 analog coupled to the d2 fluorophore (acceptor) for binding to an anti-IP1 monoclonal antibody labeled with Eu cryptate (donor). The measured HTRF-FRET based signal is inversely proportional to the IP1 concentration produced.
The EC50 values reported in Table 2 were obtained according to the human OX2R IP1 assay described above. Data are the mean EC50 values±S.E.M.

| EC50 | Structure (SMILES) |
| --- | --- |
| > 1000 nM | CN(C)S(=O)(=O)N[C@H]1CCN(C(=O)OCC2(F)CCC2)C[C@H]1CO[C@H]1CC[C@@H](c2cccc(F)c2)CC1 [Compound 66] |
| > 1000 nM | O=S(=O)(N[C@H]1CCN(c2cccnn2)C[C@H]1CO[C@H]1CC[C@@H](c2cccc(F)c2)CC1)N1CC2(COC2)C1 [Compound 34] |
| > 1000 nM | O=S(=O)(N[C@H]1CCN(c2cccnn2)C[C@H]1CO[C@H]1CC[C@@H](c2cccc(F)c2)CC1)N1CC(Cl)C1 [Compound 31] |
| < 100 nM | CN(C)S(=O)(=O)N[C@H]1CCN(C(=O)[C@@H]2CCOC2)C[C@H]1CO[C@H]1CC[C@@H](c2cccc(F)c2)CC1 [Compound 5] |
| > 1000 nM | O=S(=O)(N[C@H]1CCN(c2cccnn2)C[C@H]1CO[C@H]1CC[C@@H](c2cccc(F)c2)CC1)N1CCCC1 [Compound 26] |
| 100 to 1000 nM | O=S(=O)(N[C@H]1CCN(c2cccnn2)C[C@H]1CO[C@H]1CC[C@@H](c2cccc(F)c2)CC1)N1CCC1 [Compound 8] |
| > 1000 nM | O=S(=O)(N[C@H]1CCN(c2cccnn2)C[C@H]1CO[C@H]1CC[C@@H](c2cccc(F)c2)CC1)N1CCOCC1 [Compound 15] |
| < 100 nM | CN(C)S(=O)(=O)N[C@H]1CCN(C(=O)N2CCC(F)(F)C2)C[C@H]1CO[C@H]1CC[C@@H](c2cccc(F)c2)CC1 [Compound 61] |
| < 100 nM | O=S(=O)(N[C@H]1CCN(c2cccnn2)C[C@H]1CO[C@H]1CC[C@@H](c2cccc(F)c2)CC1)C1CC1 [Compound 10] |
| > 1000 nM | COC(=O)N1CC[C@H](NS(=O)(=O)N(C)C)[C@H](CO[C@H]2CC[C@@H](c3cccc(F)c3)CC2)C1 [Compound 16] |
| < 100 nM | CN(C)S(=O)(=O)N[C@H]1CCN(C(=O)c2cncs2)C[C@H]1CO[C@H]1CC[C@@H](c2cccc(F)c2)CC1 [Compound 45] |
| < 100 nM | CN(C)S(=O)(=O)N[C@H]1CCN(C(=O)[C@H]2C[C@@H](F)C2)C[C@H]1CO[C@H]1CC[C@@H](c2cccc(F)c2)CC1 [Compound 53] |
| > 1000 nM | CN(C)S(=O)(=O)N[C@H]1CCN(C(=O)OCC2(F)CC2)C[C@H]1CO[C@H]1CC[C@@H](c2cccc(F)c2)CC1 [Compound 58] |
| > 1000 nM | CN(C)S(=O)(=O)N[C@H]1CCN(C(=O)c2ccnn2C)C[C@H]1CO[C@H]1CC[C@@H](c2cccc(F)c2)CC1 [Compound 49] |
| < 100 nM | O=S(=O)(N[C@H]1CCN(c2cccnn2)C[C@H]1CO[C@H]1CC[C@@H](c2cccc(F)c2)CC1)C(F)F [Compound 11] |
| < 100 nM | CS(=O)(=O)N[C@H]1CCN(C(=O)[C@H]2CCOC2)C[C@H]1CO[C@H]1CC[C@@H](c2cccc(F)c2)CC1 [Compound 7] |
| < 100 nM | CS(=O)(=O)N[C@H]1CCN(C(=O)C2(F)CCC2)C[C@H]1CO[C@H]1CC[C@@H](c2cccc(F)c2)CC1 [Compound 6] |
| < 100 nM | CN(C)S(=O)(=O)N[C@H]1CCN(c2cccnn2)C[C@H]1CO[C@H]1CC[C@@H](c2cccc(F)c2)CC1 [Compound 2] |
| > 1000 nM | CC1CN(S(=O)(=O)N[C@H]2CCN(c3cccnn3)C[C@H]2CO[C@H]2CC[C@@H](c3cccc(F)c3)CC2)C1 [Compound 23] |
| > 1000 nM | O=C(NC1CCN(c2cccnn2)CC1CO[C@H]1CC[C@@H](c2cccc(F)c2)CC1)C(F)(F)F (stereo partly drawn) [Compound 67] |
| 100 to 1000 nM | C[C@@H](OC(=O)N1CC[C@H](NS(=O)(=O)N(C)C)[C@H](CO[C@H]2CC[C@@H](c3cccc(F)c3)CC2)C1)C(F)F [Compound 65] |
| < 100 nM | CNS(=O)(=O)N[C@H]1CCN(c2cccnn2)C[C@H]1CO[C@H]1CC[C@@H](c2cccc(F)c2)CC1 [Compound 3] |
| > 1000 nM | O=S(=O)(N[C@H]1CCN(c2cccnn2)C[C@H]1CO[C@H]1CC[C@@H](c2cccc(F)c2)CC1)C1CCC1 [Compound 20] |

| EC50 | Structure (SMILES) |
| --- | --- |
| 100 to 1000 nM | O=S(=O)(NC1CC1)N[C@H]1CCN(c2cccnn2)C[C@H]1CO[C@H]1CC[C@@H](c2cccc(F)c2)CC1 [Compound 17] |
| > 1000 nM | CC(C)N(C)[C@@H]1CCN(S(=O)(=O)N[C@H]2CCN(c3cccnn3)C[C@H]2CO[C@H]2CC[C@@H](c3cccc(F)c3)CC2)C1 [Compound 57] |
| > 1000 nM | COCCN(C)S(=O)(=O)N[C@H]1CCN(c2cccnn2)C[C@H]1CO[C@H]1CC[C@@H](c2cccc(F)c2)CC1 [Compound 63] |
| > 1000 nM | CN1CCCC1C(=O)N1CC[C@H](NS(=O)(=O)N(C)C)[C@H](CO[C@H]2CC[C@@H](c3cccc(F)c3)CC2)C1 (stereo partly drawn) [Compound 51] |
| > 1000 nM | CN1CC2(C1)CN(S(=O)(=O)N[C@H]1CCN(c3cccnn3)C[C@H]1CO[C@H]1CC[C@@H](c3cccc(F)c3)CC1)C2 [Compound 27] |
| < 100 nM | CC(C)S(=O)(=O)N[C@H]1CCN(c2cccnn2)C[C@H]1CO[C@H]1CC[C@@H](c2cccc(F)c2)CC1 [Compound 21] |
| > 1000 nM | CN(C)S(=O)(=O)N[C@H]1CCN(C(=O)C2CCC(F)(F)C2)C[C@H]1CO[C@H]1CC[C@@H](c2cccc(F)c2)CC1 (stereo partly drawn) [Compound 13] |
| < 100 nM | CN(C)S(=O)(=O)N[C@H]1CCN(C(=O)c2cnco2)C[C@H]1CO[C@H]1CC[C@@H](c2cccc(F)c2)CC1 [Compound 44] |
| 100 to 1000 nM | CC(C)OC(=O)N1CC[C@H](NS(=O)(=O)N(C)C)[C@H](CO[C@H]2CC[C@@H](c3cccc(F)c3)CC2)C1 [Compound 50] |
| > 1000 nM | O=S(=O)(N[C@H]1CCN(c2cccnn2)C[C@H]1CO[C@H]1CC[C@@H](c2cccc(F)c2)CC1)N1CC(CF)C1 [Compound 28] |
| > 1000 nM | CN(C)S(=O)(=O)N[C@H]1CCN(C(=O)C2CNC(=O)C2)C[C@H]1CO[C@H]1CC[C@@H](c2cccc(F)c2)CC1 (stereo partly drawn) [Compound 52] |
| < 100 nM | CCS(=O)(=O)N[C@H]1CCN(c2cccnn2)C[C@H]1CO[C@H]1CC[C@@H](c2cccc(F)c2)CC1 [Compound 19] |
| > 1000 nM | CN(C)S(=O)(=O)N[C@H]1CCN(C(=O)OC2CC2)C[C@H]1CO[C@H]1CC[C@@H](c2cccc(F)c2)CC1 [Compound 60] |
| < 100 nM | CN(C)S(=O)(=O)N[C@H]1CCN(C(=O)N2CC(F)(F)C2)C[C@H]1CO[C@H]1CC[C@@H](c2cccc(F)c2)CC1 [Compound 62] |
| < 100 nM | CN(C)S(=O)(=O)N[C@H]1CCN(C(=O)N2CCOCC2)C[C@H]1CO[C@H]1CC[C@@H](c2cccc(F)c2)CC1 [Compound 55] |
| > 1000 nM | CC(C)N(C)[C@H]1CCN(S(=O)(=O)N[C@H]2CCN(c3cccnn3)C[C@H]2CO[C@H]2CC[C@@H](c3cccc(F)c3)CC2)C1 [Compound 56] |
| > 1000 nM | CN1CCN(S(=O)(=O)N[C@H]2CCN(c3cccnn3)C[C@H]2CO[C@H]2CC[C@@H](c3cccc(F)c3)CC2)CC1 [Compound 24] |
| > 1000 nM | O=S(=O)(N[C@H]1CCN(c2cccnn2)C[C@H]1CO[C@H]1CC[C@@H](c2cccc(F)c2)CC1)N1CC(C(F)F)C1 [Compound 25] |
| > 1000 nM | CCN(CC)S(=O)(=O)N[C@H]1CCN(c2cccnn2)C[C@H]1CO[C@H]1CC[C@@H](c2cccc(F)c2)CC1 [Compound 14] |
| 100 to 1000 nM | O=S(=O)(N[C@H]1CCN(c2cccnn2)C[C@H]1CO[C@H]1CC[C@@H](c2cccc(F)c2)CC1)N1CC(F)C1 [Compound 18] |
| > 1000 nM | O=S(=O)(N[C@H]1CCN(c2cccnn2)C[C@H]1CO[C@H]1CC[C@@H](c2cccc(F)c2)CC1)N1CC(C(F)(F)F)C1 [Compound 22] |
| > 1000 nM | CN1CC(NS(=O)(=O)N[C@H]2CCN(c3cccnn3)C[C@H]2CO[C@H]2CC[C@@H](c3cccc(F)c3)CC2)C1 [Compound 33] |
